# According to US20250248979A1, “NOVEL GPX4 INHIBITORS AND USES THEREOF” (THE TRUSTEES OF COLUMBIA UNIVERSITY IN THE CITY OF NEW YORK, priority 2022, published 2025):
# Changes are numbered by the printed parent chain. Where two headings read alike, the source gives them in different places.
# Key:
# [1] = system: Salmonella typhimurium TA98, TA100, TA1535, TA1537
# [2] = target: panel of 44 targets (GPCRs, ion channels, enzymes, transporters, nuclear receptors)
# HT-1080 cells = assay: Cellular dose response assay, HT-1080 with and without Fer-1; assay type: cell-based, human
# How it was run: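 Cells seeded at 1500/well overnight, then treated in triplicate with 12-point 2-fold compound dilutions ± Fer-1 (0.4% DMSO final) for 48 h at 37 °C, 5% CO2. Viability read by CellTiter-Glo luminescence; error bars are SD of three technical replicates from a representative experiment.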
# HepG2 cells = assay: Cellular dose response assay, HepG2; assay type: cell-based, human
# Source text: HT-1080 (human [Homo sapiens] […] fibrosarcoma), A-673 (human [Homo sapiens] […] Ewing's sarcoma), and SK-HEP-1 (human [Homo sapiens] […] hepatic adenocarcinoma), cells were obtained from ATCC. Huh7 (human [Homo sapiens] […] hepatocellular carcinoma), HLF (human [Homo sapiens] […] hepatocellular carcinoma), HepG2 (human [Homo sapiens] […] hepatocellular carcinoma), cells were obtained from the Cancer Cell Bank at Columbia University Irving Medical Center. HT-1080, A-673, Huh-7, and HLF cells were grown in Dulbecco's Modified Eagle Medium (DMEM) supplemented with 10% heat inactivated fetal bovine serum (HI-FBS), 1% non-essential amino acids, and 1% penicillin streptomycin. HepG2 and SK-HEP-1 cells were grown in Eagle's Minimum Essential Medium (EMEM) supplemented with 10% HI-FBS, and 1% penicillin-streptomycin. All cells were cultured at 37° C. and 5% CO2.
# HT-1080, HepG2, Huh7, HLF, and SK-HEP-1 cells were seeded into opaque white 384-well plates at 1500 cells per well then incubated at 37° C. with 5% CO2 overnight. The next day, compounds of interest were dissolved in DMSO and 12-point 2-fold dilution series were prepared with and without Fer-1. Cells were treated in triplicate (final DMSO concentration of 0.4% in all wells, including DMSO-only control wells) and incubated for a further 48 hours at 37° C. and 5% CO2. Cell viability was evaluated using CellTiter-Glo (Promega G7573) and luminescence was recorded on a Victor 5 plate reader. Data were analyzed in GraphPad Prism 9 and error bars represent standard deviation values for three technical replicates in a representative experiment.
# [3] = system: lipid peroxidation in HT-1080 cells; assay: C11-BODIPY lipid peroxidation flow cytometry assay; assay type: cell-based, human; details: HT-1080 cells, with and without fer-1
# GPX4 = target: T1, GPX4 (Homo sapiens, UniProt P36969); assay: GPX4 activity assay in cell lysates (NADPH-coupled); assay type: biochemical; design: endogenous in cells; host or cells: A-673 cell lysate; details: for GPX4% inhibition at 200 (μM): mean ± s.d., n = 3
# T1 sequence (P36969 1-170 isoform P36969-2): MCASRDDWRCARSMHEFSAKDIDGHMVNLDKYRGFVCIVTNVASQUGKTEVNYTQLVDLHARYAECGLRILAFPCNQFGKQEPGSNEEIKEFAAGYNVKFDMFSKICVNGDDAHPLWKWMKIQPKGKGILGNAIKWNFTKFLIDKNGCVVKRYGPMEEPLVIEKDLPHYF
# How it was run: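 Native GPX4 in lysates of A-673 cells grown with 20 nM sodium selenite; lysate preincubated with compound 45 min at 37 °C in pH 8.0 buffer with 3 mM GSH, 0.5 mM NADPH and glutathione reductase. Reaction started with phosphatidylcholine hydroperoxide; NADPH consumption followed at 340 nm over 25 min; triplicates.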
# GPX4^U46C = target: T2, GPX4^U46C (Homo sapiens, UniProt P36969, U73C); assay: Microscale thermophoresis (MST) binding; details: half maximal effective concentration, covalent mechanism
# T2 construct: made in house; host or cells: E. coli BL21-Gold (DE3)
# T2 sequence (P36969 1-170 isoform P36969-2 U46C): T1 sequence (P36969 1-170 isoform P36969-2) with U46C
# Description: The bacterial expression vector pET-15b-His-tagged-c-GPX4^U46C was prepared as previously described (Yang et al. 2016). The C-terminal His-tagged GPX4U46C protein was expressed in E. coli and purified according to a protocol modified from Scheerer et al. 2007. First, pET-15b-His-tagged-c-GPX4^U46C was transformed into XL10-Gold (Agilent #200314) E. coli ultracompetent cells for plasmid DNA production and isolated using QIAprep Spin Miniprep Kit (Qiagen). For protein expression, pET-15b-His-tagged-c-GPX4^U46C was then transformed into BL21-Gold (DE3) E. coli competent cells (Agilent #230132) and plated on LB agar with 100 μg/mL ampicillin. A starter culture was inoculated in 7 mL of LB medium with 100 μg/mL ampicillin using a single colony and allowed to grow in a 37° C. shaker (225 rpm) for 16 hours. 3 mL of the starter culture was added to 1 L of LB medium with 100 μg/mL ampicillin, which was then incubated in a 37° C. shaker (225 rpm) to an OD600 of 0.9. At that point, the incubation temperature was reduced to 15° C. and the culture was allowed to equilibrate for 1 hour. Expression of the recombinant enzyme was induced by addition of isopropyl β-D-1-thiogalactopyranoside (IPTG, 1 mM final concentration) overnight for 12-15 hours shaking at 225 rpm and 15° C. The next morning, cells were harvested by centrifugation at 4000 rpm and 4° C. for 20 minutes. The cell pellet was then frozen at −80° C. for at least 1 hour or until lysis. To lyse the cells, the cell pellet was resuspended with 25 mL of chilled lysis buffer (100 mM Tris pH 8.0, 300 mM NaCl, 20 mM imidazole, 3 mM TCEP, and 2.5 mini tablets of complete Protease Inhibitor Cocktail (Roche-Sigma #11836170001)) then lysed using an Emulsiflex C3 high-pressure homogenizer. To remove cell debris, the lysate was subjected to centrifugation at 10000 rpm and 4° C. for 20 minutes. The supernatant was centrifuged once more at the same conditions, then the clarified lysate was applied onto a 5-mL HisTrap HP column (Cytiva #17-5248-01), washed with 90% Buffer A (100 mM Tris pH 8.0, 300 mM NaCl, 5% glycerol, 3 mM TCEP) 10% Buffer B (Buffer A with 500 mM imidazole), then eluted with a continuous gradient (10-100% Buffer B). The protein was concentrated using Amicon Ultra-15 centrifugal filter units with a 10 kDa molecule weight cutoff (EMD Millipore #UFC901024) then further purified by FPLC on a size exclusion HiLoad Superdex 200 column (Cytiva) in crystallization buffer (20 mM Tris pH 8.0, 300 mM NaCl, 3 mM TCEP). The fractions containing 90-95% pure GPX4 protein, as evaluated by SDS-PAGE, were pooled and concentrated using the same Amicon centrifugal filter units as above to 5 mg/mL. Concentration was determined by Nanodrop. Protein was aliquoted into Eppendorf tubes, flash frozen using liquid nitrogen, and stored at −80° C. until use.
# MST experiments were conducted using a Monolith NT.115 (Nanotemper Technologies) according to manufacturer instructions. To label the protein, 90 μL of 200 nM GPX4^U46C was combined with 90 μL of 100 nM RED-tris-NTA dye diluted in PBS buffer with 0.05% Tween 20 (PBST buffer). The mixture was incubated for 30 minutes at room temperature, followed by centrifugation for 10 minutes at 4° C. and 15,000×g. To assess binding of the compounds, a 16-point 2-fold dilution series in PBST buffer was prepared and mixed in a 1:1 ratio with the labeled protein solution for a final volume of 20 μL. The reaction mixture was loaded into standard treated capillary tubes and analyzed with the Monolith NT.115 at 40% LED power and 40% MST power with a laser-on time of 5 seconds. The data were analyzed in MO.Affinity Analysis v2.3 software.
# in vitro [4] = assay type: in vitro ADME, human; details: human, microsomes
# Description: (§1) […]. The incubation timepoints measured were 0, 5, 10, 15, 30, and 45 minutes. All samples were prepared in duplicate and analyzed by LC-MS/MS.
# in vitro [5] = assay type: in vitro ADME, mouse; details: mouse, microsomes
# Description: as §1
# [6] = not given; remark: listed apart in the source
# [7] = Kinetic aqueous solubility; details: aqueous solubility; Table 9
# [8] = read-out: IC50 (M) Reference Compound (EC50 for agonist)
smiles,measurement,setting,value
CN(N=O)C(=O)N[C@H]1C(O)O[C@H](CO)[C@@H](O)[C@@H]1O (mixture of isomers) [Streptozotocin],Positive Significance (− to +++) TA98 − S9,[1]; 2.5 μM,"+ (Weak positive, if p < 0.05)"
same,Positive Significance (− to +++) TA100 + S9,[1]; 2.5 μM,"+++ (Very strong positive, if p < 0.001)"
same,Positive Significance (− to +++) TA100 − S9,"[1]; TA100, − S9, 2.5 μM","+++ (Very strong positive, if p < 0.001)"
same,Positive Significance (− to +++) TA1535 + S9,[1]; 2.5 μM,"+++ (Very strong positive, if p < 0.001)"
same,Positive Significance (− to +++) TA1535 − S9,"[1]; TA1535, − S9, 2.5 μM","+++ (Very strong positive, if p < 0.001)"
"Nc1ccc2cc3ccccc3cc2c1 [Compound 2-Aminoanthracene, 2-Aminoanthracene]",Positive Significance (− to +++) TA98 + S9,[1]; 1 μM,"+++ (Very strong positive, if p < 0.001)"
same,Positive Significance (− to +++) TA100 + S9,[1]; 1 μM,"+++ (Very strong positive, if p < 0.001)"
same,Positive Significance (− to +++) TA1535 + S9,[1]; 1 μM,"++ (Strong positive, if p < 0.01)"
same,Positive Significance (− to +++) TA1537 + S9,[1]; 1 μM,"+++ (Very strong positive, if p < 0.001)"
"O=[N+]([O-])c1ccc2c(c1)Cc1ccccc1-2 [Compound 2-Nitrofluorene, 2-Nitrofluorene]",Positive Significance (− to +++) TA98 + S9,[1]; 30 μM,"+++ (Very strong positive, if p < 0.001)"
same,Positive Significance (− to +++) TA98 − S9,[1]; 30 μM,"+++ (Very strong positive, if p < 0.001)"
"Nc1c2ccccc2nc2ccccc12 [Compound 9-Aminoacridine, 9-Aminoacridine]",Positive Significance (− to +++) TA1537 + S9,[1]; 10 μM,"++ (Strong positive, if p < 0.01)"
same,Positive Significance (− to +++) TA1537 − S9,"[1]; TA1537, − S9, 10 μM","+++ (Very strong positive, if p < 0.001)"
Clc1ccc(C2CC3CCC2N3)cn1 (centres unmarked) [Epibatidine],EC50,[2]; [8],2.5e-09 M
C[C@]12N[C@H](Cc3ccccc31)c1ccccc12 [MK-801],IC50,[2]; [8],2.75e-08 M
CNC1(C)C2CCC(C2)C1(C)C (centres unmarked) [Mecamylamine],IC50,[2]; read-out: IC50 (M) Reference Compound,8.31e-07 M
same,IC50,[2]; [8],6.8e-07 M
Cn1c(C(=O)n2ccnc2)cc2ccccc21 [QW-057],"ferroptosis induction / potency in HT-1080 cells, result in words",HT-1080 cells; RSL3 as control,no fer-1 rescue was observed
same,IC50,"HT-1080 cells; compounds alone, read-out: IC50 (μM) HT1080^a",64 µM
same,IC50,"HT-1080 cells; compounds and fer-1 1.0 μM, read-out: IC50 (μM) HT1080^b",64.2 µM
same,IC50,"HepG2 cells; compounds alone, read-out: IC50 (μM) HEPG2^a",97.7 µM
same,IC50,"HepG2 cells; compounds and fer-1 1.0 μM, read-out: IC50 (μM) HEPG2^b",82.6 µM
same,"lipid peroxidation (C11-BODIPY), result in words",[3],did not induce lipid peroxidation
same,fold increase in GPX4 inhibitory activity in comparison to LOC1886,GPX4; 200 uM,~2 fold
same,GPX4% inhibition at 200 (μM),GPX4,59.8 ± 12.5%
COc1cccc2[nH]c(C(=O)NC(C)(C)COC(=O)CCl)cc12 [QW-144],EC50,GPX4^U46C,836 nM
same,GPX4% inhibition at 200 (μM),GPX4; generation 1,50.0 ± 32.5%
Cc1ccc2[nH]c(C(=O)NC(C)(C)COC(=O)CCl)cc2c1 [QW-155],EC50,GPX4^U46C,473000 nM
same,GPX4% inhibition at 200 (μM),GPX4; generation 1,50.9 ± 3.6%
CC(C)(COC(=O)CCl)NC(=O)c1cc2cc(Cl)ccc2[nH]1 [QW-164],EC50,GPX4^U46C,2100 nM
same,GPX4% inhibition at 200 (μM),GPX4; generation 1,53.3 ± 37.8%
Cn1nc(C(=O)NC(C)(C)COC(=O)CCl)c2ccc(-c3ccc4c(c3)OCO4)cc21 [QW-594],Selectivity,HT-1080 cells,3.3
same,IC50,"HT-1080 cells; HT1080 + Fer-1, read-out: IC50 (uM) HT1080 + Fer-1",8.8 µM
same,IC50,"HT-1080 cells; HT1080, without Fer-1, read-out: IC50 (uM) HT1080",2.7 µM
same,Microsome Stability t1/2 (min) human,in vitro [4],250 min
same,Microsome Stability t1/2 (min) mouse,in vitro [5],137 min
same,unbound clearance rate,in vitro [5],0.085 µL/min/mg
same,Plasma Stability t1/2 (min) human,,6.6 min
same,Plasma Stability t1/2 (min) mouse,[6],17.0 min
same,half-life in mouse plasma,[6],17 min
same,Solubility,[7],1.0 µM
same,"GPX4 inhibitory activity, result in words",GPX4,comparable to that of QW-446
same,GPX4% inhibition at 2.5 μM,GPX4,71.5 ± 3.0%
same,GPX4 inhibition rate,GPX4; concentration not given,75%
Cn1nc(C(=O)NC(C)(C)CNC(=O)CCl)c2ccc(Br)cc21 [QW-624],"lipid peroxidation (C11-BODIPY), result in words",[3],still active in lipid peroxidation assay
same,Microsome Stability t1/2 (min) human,in vitro [4],8.8 min
same,Microsome Stability t1/2 (min) mouse,in vitro [5],1.2 min
same,Plasma Stability t1/2 (min) human,,142 min
same,Plasma Stability t1/2 (min) mouse,[6],685 min
same,GPX4% inhibition at 2.5 μM,GPX4; generation 2,−9.6 ± 4.4%
